Patent US20180244548A1, “USE OF COPPER-CARBON COMPOSITE NANOMATERIAL IN ALGAE CONTROL” (Suzhou Guanjie Nano Anti-bacteria Coating Technology Co., …, priority 2015, published 2018)
Several values for one entry are separate records, joined by “and”; a condition that tells them apart may be missing. Equal entries are not always repeated.

What was measured:
[1] = system: scenedesmus (green algae), chlorella (green algae) and microcystis aeruginosa (blue algae); assay: laboratory algae growth inhibition, α content of chlorophyll over time; type: cell-based; conditions: copper sulfate 6 ppm
[2] = system: scenedesmus, chlorella and microcystis aeruginosa cells; assay: scanning electron microscope appearance observation of algae cells; type: cell-based; conditions: nanomaterial 6.25-50 ppm; activated carbon 50 ppm; copper oxide 50 ppm; copper sulfate 6 ppm

SMILES: O=S(=O)([O-])[O-].[Cu+2] [copper sulfate]
- inhibition time of algae growth [1]: 7 to 9 days and 7 days
- appearance of algae cells in scanning electron micrographs [2]: completely changed
